Test results published in the supplement of paper PMC10307832.

Tests used:
Test in all cases: relative viability (nuclei count vs DMSO), 5 days (fraction); higher = more cells survive
[1] = tested on: A-427
In short: (§1)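 Nuclei were stained with Hoechst during a one-step fixation (final 0.05% Triton X-100, 1% formaldehyde, 1 ug/ml Hoechst) carried out 5 days after dosing, then counted on 4× images. The cells, lung cancer lines in 1536-well plates, had been dosed by pin tool the day after seeding with one drug alone or a fixed anchor-drug dose plus five library-drug doses (not always all listed) in √10 steps. Relative viability is the nuclei count in treated wells divided by that in vehicle wells, and each value is the median of duplicate plates.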

[2] = tested on: H3255
In short: as §1

[3] = tested on: HARA
In short: as §1

[4] = tested on: HCC-15
In short: as §1

[5] = tested on: HCC-366
In short: as §1

[6] = tested on: LXF-289
In short: as §1

[7] = tested on: NCI-H1437
In short: as §1

[8] = tested on: NCI-H1755
In short: as §1

[9] = tested on: NCI-H1793
In short: as §1

[10] = tested on: NCI-H1915
In short: as §1

[11] = tested on: NCI-H1975
In short: as §1

[12] = tested on: NCI-H2009
In short: as §1

[13] = tested on: NCI-H2023
In short: as §1

[14] = tested on: NCI-H2405
In short: as §1

[15] = tested on: NCI-H3122
In short: as §1

[16] = tested on: NCI-H441
In short: as §1

[17] = tested on: NCI-H460
In short: as §1

[18] = tested on: NCI-H596
In short: as §1

[19] = tested on: NCI-H650
In short: as §1

[20] = tested on: PC-14
In short: as §1

[21] = tested on: PC-3 [JPC-3]
In short: as §1

[22] = tested on: SK-LU-1
In short: as §1

[23] = tested on: UMC-11
In short: as §1

## O=c1[nH]c2ccccc2n1C1CCN(CCCC(c2ccc(F)cc2)c2ccc(F)cc2)CC1 [Pimozide] + CC(=O)Nc1cccc(-n2c(=O)n(C3CC3)c(=O)c3c(Nc4ccc(I)cc4F)n(C)c(=O)c(C)c32)c1 [Trametinib] (partner 0.02 µM)
[1]; first compound 0.08 µM
  relative viability: 0.771
[1]; first compound 0.253 µM
  relative viability: 0.75
[1]; first compound 0.8 µM
  relative viability: 0.701
[1]; first compound 2.53 µM
  relative viability: 0.682
[1]; first compound 8 µM
  relative viability: 0.68
[2]; first compound 0.253 µM
  relative viability: 0.577
[2]; first compound 0.8 µM
  relative viability: 0.562
[2]; first compound 2.53 µM
  relative viability: 0.564
[2]; first compound 8 µM
  relative viability: 0.623
[3]; first compound 0.08 µM
  relative viability: 0.612
[3]; first compound 0.253 µM
  relative viability: 0.662
[3]; first compound 0.8 µM
  relative viability: 0.739
[3]; first compound 2.53 µM
  relative viability: 0.458
[3]; first compound 8 µM
  relative viability: 0.631
[4]; first compound 0.08 µM
  relative viability: 0.398
[4]; first compound 0.253 µM
  relative viability: 0.355
[4]; first compound 0.8 µM
  relative viability: 0.386
[4]; first compound 2.53 µM
  relative viability: 0.358
[4]; first compound 8 µM
  relative viability: 0.34
[5]; first compound 0.08 µM
  relative viability: 0.32
[5]; first compound 0.253 µM
  relative viability: 0.282
[5]; first compound 0.8 µM
  relative viability: 0.361
[5]; first compound 2.53 µM
  relative viability: 0.298
[5]; first compound 8 µM
  relative viability: 0.34
[6]; first compound 0.08 µM
  relative viability: 0.623
[6]; first compound 0.253 µM
  relative viability: 0.67
[6]; first compound 0.8 µM
  relative viability: 0.627
[6]; first compound 2.53 µM
  relative viability: 0.687
[6]; first compound 8 µM
  relative viability: 0.674
[7]; first compound 0.08 µM
  relative viability: 0.652
[7]; first compound 0.253 µM
  relative viability: 0.495
[7]; first compound 0.8 µM
  relative viability: 0.441
[7]; first compound 2.53 µM
  relative viability: 0.376
[7]; first compound 8 µM
  relative viability: 0.412
[8]; first compound 0.08 µM
  relative viability: 0.748
[8]; first compound 0.253 µM
  relative viability: 0.766
[8]; first compound 0.8 µM
  relative viability: 0.736
[8]; first compound 2.53 µM
  relative viability: 0.761
[8]; first compound 8 µM
  relative viability: 0.712
[9]; first compound 0.08 µM
  relative viability: 0.478
[9]; first compound 0.253 µM
  relative viability: 0.391
[9]; first compound 0.8 µM
  relative viability: 0.391
[9]; first compound 2.53 µM
  relative viability: 0.44
[9]; first compound 8 µM
  relative viability: 0.515
[10]; first compound 0.08 µM
  relative viability: 0.293
[10]; first compound 0.253 µM
  relative viability: 0.296
[10]; first compound 2.53 µM
  relative viability: 0.296
[10]; first compound 8 µM
  relative viability: 0.287
[11]; first compound 0.08 µM
  relative viability: 0.273
[11]; first compound 0.253 µM
  relative viability: 0.405
[11]; first compound 0.8 µM
  relative viability: 0.363
[11]; first compound 2.53 µM
  relative viability: 0.353
[11]; first compound 8 µM
  relative viability: 0.227
[12]; first compound 0.08 µM
  relative viability: 0.256
[12]; first compound 0.253 µM
  relative viability: 0.276
[12]; first compound 0.8 µM
  relative viability: 0.284
[12]; first compound 2.53 µM
  relative viability: 0.321
[12]; first compound 8 µM
  relative viability: 0.225
[13]; first compound 0.08 µM
  relative viability: 0.584
[13]; first compound 0.253 µM
  relative viability: 0.532
[13]; first compound 0.8 µM
  relative viability: 0.582
[13]; first compound 2.53 µM
  relative viability: 0.429
[13]; first compound 8 µM
  relative viability: 0.362
[14]; first compound 0.08 µM
  relative viability: 0.606
[14]; first compound 0.253 µM
  relative viability: 0.65
[14]; first compound 0.8 µM
  relative viability: 0.621
[14]; first compound 2.53 µM
  relative viability: 0.491
[14]; first compound 8 µM
  relative viability: 0.36
[15]; first compound 0.08 µM
  relative viability: 0.239
[15]; first compound 0.253 µM
  relative viability: 0.227
[15]; first compound 0.8 µM
  relative viability: 0.216
[15]; first compound 2.53 µM
  relative viability: 0.252
[15]; first compound 8 µM
  relative viability: 0.188
[16]; first compound 0.08 µM
  relative viability: 0.425
[16]; first compound 0.253 µM
  relative viability: 0.463
[16]; first compound 0.8 µM
  relative viability: 0.335
[16]; first compound 2.53 µM
  relative viability: 0.565
[16]; first compound 8 µM
  relative viability: 0.315
[17]; first compound 0.08 µM
  relative viability: 0.239
[17]; first compound 0.253 µM
  relative viability: 0.0857
[17]; first compound 0.8 µM
  relative viability: 0.131
[17]; first compound 2.53 µM
  relative viability: 0.185
[17]; first compound 8 µM
  relative viability: 0.14
[18]; first compound 0.08 µM
  relative viability: 0.83
[18]; first compound 0.253 µM
  relative viability: 0.763
[18]; first compound 0.8 µM
  relative viability: 0.738
[18]; first compound 2.53 µM
  relative viability: 0.736
[18]; first compound 8 µM
  relative viability: 0.772
[19]; first compound 0.08 µM
  relative viability: 0.97
[19]; first compound 0.253 µM
  relative viability: 0.962
[19]; first compound 0.8 µM
  relative viability: 0.885
[19]; first compound 2.53 µM
  relative viability: 1.06
[19]; first compound 8 µM
  relative viability: 0.974
[20]; first compound 0.253 µM
  relative viability: 0.622
[20]; first compound 0.8 µM
  relative viability: 0.686
[20]; first compound 2.53 µM
  relative viability: 0.607
[20]; first compound 8 µM
  relative viability: 0.62
[21]; first compound 0.253 µM
  relative viability: 0.683
[21]; first compound 0.8 µM
  relative viability: 0.651
[21]; first compound 2.53 µM
  relative viability: 0.656
[21]; first compound 8 µM
  relative viability: 0.607
[22]; first compound 0.08 µM
  relative viability: 0.463
[22]; first compound 0.253 µM
  relative viability: 0.472
[22]; first compound 0.8 µM
  relative viability: 0.455
[22]; first compound 2.53 µM
  relative viability: 0.404
[22]; first compound 8 µM
  relative viability: 0.352
[23]; first compound 0.08 µM
  relative viability: 0.602
[23]; first compound 0.253 µM
  relative viability: 0.675
[23]; first compound 0.8 µM
  relative viability: 0.655
[23]; first compound 2.53 µM
  relative viability: 0.681
[23]; first compound 8 µM
  relative viability: 0.918
